Experiments:
HT-29 [1] = assay: Anti-austerity antiproliferative activity against human HT-29 cells after 72 hrs in presence of 10 % serum; assay type: cell-based; details: HT-29, 72 h
HT-29 [2] = assay: Anti-austerity antiproliferative activity against nutrient-deprived human HT-29 cells after 72 hrs in presence of 0.5% serum; assay type: functional, cell-based; details: HT-29, 72 h
[3] = Anti-austerity antiproliferative activity against nutrient-deprived human PANC1 cells after 72 hrs in presence of 0.5% serum; assay type: functional, cell-based; details: PANC-1, 72 h
[4] = Anti-austerity antiproliferative activity against human PANC1 cells after 72 hrs in presence of 10 % serum; assay type: cell-based; details: PANC-1, 72 h

SMILES	IC50 (HT-29 [1]) [µM]	IC50 (HT-29 [2]) [µM]	IC50 [3] [µM]	IC50 [4] [µM]
O=C(OC[C@@]1(O)C(=O)C=C[C@H]2[C@@H]1[C@H]1C=C[C@@H]2C(=O)[C@]1(O)COC(=O)c1ccccc1)c1ccccc1	109	> 500	> 500	123
O=C(OC[C@@]1(O)C(=O)C=C[C@H]2[C@@H]1[C@H]1C=C[C@@H]2C(=O)[C@]1(O)COC(=O)c1ccc(Cl)cc1)c1ccc(Cl)cc1	39	18	77	84
COc1ccc(C(=O)OC[C@@]2(O)C(=O)C=C[C@H]3[C@@H]2[C@H]2C=C[C@@H]3C(=O)[C@]2(O)COC(=O)c2ccc(OC)cc2)cc1	35	22	52	78
O=C(OC[C@@]1(O)C(=O)CC[C@H]2[C@@H]1[C@H]1CC[C@@H]2C(=O)[C@]1(O)COC(=O)c1ccccc1)c1ccccc1	39	27	86	81
